The source of these data is patent publication US7176261B2, “Angiotensin-(1-7) eluting polymer-coated medical device to reduce restenosis and improve endothelial cell function” (Medtronic, Inc., priority 2004, dated 2007).

One assay deals with T1, ACE (Homo sapiens, UniProt P12821).
T1 construct: host or cells: patients (in vivo, endogenous enzyme)
The following applies: after six months of treatment, more than 2,000 patients; cited from earlier work.

In assay [1] the test system is smooth muscle cell proliferation. As to conditions: intravenous infusion; cited from earlier work.
The subject of assay [2] is rats with uncoated stents implanted in the abdominal aorta. The experiment in a line: Angiotensin-(1-7) pump study in rat aorta model (uncoated stents, micropump infusion). It is filed as in vivo. As to the method: The effects of Ang-(1-7) on restenosis were studied in rats with uncoated stents implanted in the abdominal aorta with Ang-(1-7) infused by implantable micro pump. Twelve rats per group were implanted with stents and micropumps containing one of three infusion regimens for three weeks. Control rats received saline infusions and the Ang-(1-7) groups received infusion of Ang-(1-7) at 10 μg/kg/hr or 24 μg/kg/hr.
The rats receiving 24 μg/kg/hr, however, scored lower in neointimal level and percentage stenosis (Table 1 and FIG. 7). A 27% reduction in neointimal area was seen between the control rats and those receiving 24 μg/kg/hr Ang-(1-7). Ang-(1-7) has a clear beneficial effect on the restenosis rate.

[3] abbreviates: Ang-(1-7) infusion 24 μg/kg/hr for three weeks.

Marks after values point to notes of the source that are not given here.

T1 sequence (P12821 30-1306): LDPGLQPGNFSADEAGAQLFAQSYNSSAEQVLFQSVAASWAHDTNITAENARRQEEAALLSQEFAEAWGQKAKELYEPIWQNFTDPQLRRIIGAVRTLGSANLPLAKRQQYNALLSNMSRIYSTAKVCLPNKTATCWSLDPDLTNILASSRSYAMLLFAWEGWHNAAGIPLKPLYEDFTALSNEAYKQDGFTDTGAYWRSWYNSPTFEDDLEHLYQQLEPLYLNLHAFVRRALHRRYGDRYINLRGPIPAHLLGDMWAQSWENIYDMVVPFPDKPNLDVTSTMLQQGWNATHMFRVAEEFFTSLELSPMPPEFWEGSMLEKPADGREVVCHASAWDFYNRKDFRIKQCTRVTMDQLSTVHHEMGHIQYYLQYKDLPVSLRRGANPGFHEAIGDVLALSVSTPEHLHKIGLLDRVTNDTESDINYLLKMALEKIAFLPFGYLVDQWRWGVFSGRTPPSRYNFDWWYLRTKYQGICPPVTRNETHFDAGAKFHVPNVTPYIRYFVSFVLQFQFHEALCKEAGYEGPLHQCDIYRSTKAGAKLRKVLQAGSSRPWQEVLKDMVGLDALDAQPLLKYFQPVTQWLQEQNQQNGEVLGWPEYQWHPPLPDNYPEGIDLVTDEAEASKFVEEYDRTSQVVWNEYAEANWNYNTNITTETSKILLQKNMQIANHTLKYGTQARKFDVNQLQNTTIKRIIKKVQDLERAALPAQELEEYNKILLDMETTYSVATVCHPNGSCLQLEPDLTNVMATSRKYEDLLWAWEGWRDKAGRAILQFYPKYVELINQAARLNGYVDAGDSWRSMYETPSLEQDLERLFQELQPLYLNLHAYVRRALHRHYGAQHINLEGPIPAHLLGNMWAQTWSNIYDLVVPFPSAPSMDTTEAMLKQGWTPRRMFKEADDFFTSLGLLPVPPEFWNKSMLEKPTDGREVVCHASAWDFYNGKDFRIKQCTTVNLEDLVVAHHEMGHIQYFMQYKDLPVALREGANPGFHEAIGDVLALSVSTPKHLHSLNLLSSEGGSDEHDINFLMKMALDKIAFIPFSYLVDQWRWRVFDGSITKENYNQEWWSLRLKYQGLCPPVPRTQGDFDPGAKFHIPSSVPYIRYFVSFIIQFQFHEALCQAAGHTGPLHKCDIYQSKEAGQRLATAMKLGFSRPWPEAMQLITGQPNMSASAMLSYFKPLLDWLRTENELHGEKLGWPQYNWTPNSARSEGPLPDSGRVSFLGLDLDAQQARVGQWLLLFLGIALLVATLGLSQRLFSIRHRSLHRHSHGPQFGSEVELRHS

For the molecule `CCOC(=O)[C@H](CCc1ccccc1)N[C@H]1CCCN2CCC[C@@H](C(=O)O)N2C1=O` [cilazapril], the “incidence of restenosis vs placebo” value at ACE was “no significant differences”.
“Asp Arg Val Tyr lie His Pro (DRVYIHP; listed as Homo sapiens) [Ang-(1-7)]”: in assay [1], the “smooth muscle cell proliferation associated with balloon-catheter injury” value is “inhibited”. Besides, the “difference compared to the control group in any of the parameters measured” value in assay [2] (10 μg/kg/hr infusion) was “did not show any significant difference”. For the same molecule, the “reduction in neointimal area vs control rats” value in assay [2] (24 μg/kg/hr infusion) is 27%. Besides, the “endothelial function as measured in the thoracic aorta position, proximal from the stent” value in assay [2] (Ang-(1-7) infusion) is “improved endothelial function”. Besides, in assay [2] (setting [3]), the “Media Area” value is listed as 0.40 ± 0.05 mm^2 and the Neointimal Thickness was determined as 111 ± 8 µm. Further, in assay [2] (Ang-(1-7) infusion 24 μg/kg/hr for three weeks, p = 0.016 vs. control), the “Percentage Stenosis” value is reported as 10.4 ± 1.0 %. Besides, the Neointimal area in assay [2] (Ang-(1-7) infusion 24 μg/kg/hr for three weeks, p = 0.035 vs. control) is reported as 0.51 ± 0.05* mm^2.
